Results taken from PubChem BioAssay (NCI).
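48-hour exposure; five concentrations; linearly interpolated endpoints. GI50: concentration for 50% inhibition of growth. Definition used: TGI = concentration required for complete inhibition of growth.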

Experiments:
Experiment in all cases: growth of human tumour cells (NCI), 48 h
SF-539 CNS = test system: SF-539 CNS
SN12C renal = test system: SN12C renal
COLO 205 colon = test system: COLO 205 colon
EKVX NSCLC = test system: EKVX NSCLC
NCI-H522 lung = test system: NCI-H522 lung
SK-MEL-2 melanoma = test system: SK-MEL-2 melanoma
SNB-75 CNS = test system: SNB-75 CNS
UACC-62 melanoma = test system: UACC-62 melanoma
HOP-92 NSCLC = test system: HOP-92 NSCLC
HL-60(TB) leukemia = test system: HL-60(TB) leukemia

SMILES	GI50 (SF-539 CNS) [nM]	TGI (SF-539 CNS) [µM]	GI50 (SN12C renal) [µM]	TGI (SN12C renal) [µM]	GI50 (COLO 205 colon) [nM]	TGI (COLO 205 colon) [µM]	GI50 (EKVX NSCLC) [µM]	TGI (EKVX NSCLC) [µM]	GI50 (NCI-H522 lung) [µM]	TGI (NCI-H522 lung) [µM]	GI50 (SK-MEL-2 melanoma) [nM]	TGI (SK-MEL-2 melanoma) [µM]	GI50 (SNB-75 CNS) [nM]	TGI (SNB-75 CNS) [µM]	GI50 (UACC-62 melanoma) [µM]	TGI (UACC-62 melanoma) [µM]	GI50 (HOP-92 NSCLC) [nM]	TGI (HOP-92 NSCLC) [µM]	GI50 (HL-60(TB) leukemia) [nM]	TGI (HL-60(TB) leukemia) [µM]
COc1ccc2cc(-c3c(-c4ccncc4)nc(-c4ccc(S(C)=O)cc4)n3C)ccc2c1 (stereo not given)	> 25000	> 25	18	> 25	17000	> 25	15.6	> 25	> 18.5	> 25	> 25000	> 25	> 12800	> 25	21	> 25	5670	> 25	18300	> 25
COc1ccc(-c2cc(=O)c3c(OC)c(OC)c(OC)c(OC)c3o2)cc1		> 100		> 100		> 100		> 100		66.5		> 100		> 100		84		> 100		> 100
O=C(Nc1cccc(Nc2ncc(Br)c(NCCc3cnc[nH]3)n2)c1)N1CCCC1	897	9.17	2.88	33.6	562	4.06	6.07	38.1	11.5	27.6	5310	19.4	1280	4.96	6.12	22.4	932	7.93	3470	24.2
C[C@@H]1O[C@@H](O[C@H]2CC[C@@]3(C)[C@H](CCC4[C@@H]3C(O)C[C@]3(C)[C@@H](c5ccc(=O)oc5)CC[C@]43O)C2)[C@H](O)[C@H](O)[C@H]1O (stereo not given in full)	4.21	0.00897	< 0.00325	0.758	6.64	0.013	0.00379	0.00766	< 0.00325	0.0035	7.41	0.0163	4.7	0.0107	0.00698	0.0153	7.86	0.0216	4.9	0.00768
O=C(O)COc1c(Cl)cc(Cl)c2cccnc12		> 100		> 100		> 100		> 100		> 100		> 100		> 100		> 100		> 100		> 100
COC(=O)C(C)(C)N=CN(C)C		> 100		> 100		> 100		> 100		> 100		> 100		> 100		> 100		> 100		> 100
COc1ccc(C(Cl)=C(c2ccc(OCCN(C)C)cc2)c2ccc(OCCN(C)C)cc2)cc1		2.93		11.7		2.94		18.1		3.01		3.12		3.29		3.16		6.1		3.65
COc1ccc(OC)c(Cn2cc3c(c2)-c2oncc2CC3)c1	2280	7.63	5.97	> 100	3560	13.6	4.22	> 100	1.63	4.89	2030	7.62	1750	6.56	3.97	> 100	3250	57.8	1650	6.74
